Data: patent US20120142771A1, “BIPHENYLACETAMIDE DERIVATIVE” (Dainippon Sumitomo Pharma Co., Ltd., priority 2008, published 2012)

Tested on: maximum electroshock seizure (MES) model
Test: Maximum electroshock seizure (MES) model test
Format: in vivo, mice
In short: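 Tonic hind-limb extension was elicited by corneal electroshock (60 Hz, 25 mA, 0.2 s) 1 h after oral dosing. Test compounds were given at 50 or 100 mg/kg to groups of 3 male Slc: ddY mice (20-30 g), vehicle controls receiving 0.5% tragacanth or 0.5% methylcellulose solution.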

## NC(=O)Cc1ccccc1-c1ccccc1F [Example 1, 2-(2′-Fluorobiphenyl-2-yl)acetamide]
Mus musculus, po, 1 h, 50 mg/kg oral, Slc: ddY male mice, 3 per group, electrical stimulation 1 hour after administration, inhibition of hind limb extension, read-out: MES (positive number/tested number) (converted)
  responders at 50 mg/kg: 100%
Mus musculus, po, 1 h, 100 mg/kg oral, Slc: ddY male mice, 3 per group, electrical stimulation 1 hour after administration, inhibition of hind limb extension, read-out: MES (positive number/tested number) (converted)
  responders at 100 mg/kg: 100%
mice, oral 50 or 100 mg/kg, 1 hour after administration
  anticonvulsant action in maximum electroshock seizure (MES) model test: anticonvulsant action was observed
